Earlier results, collected in patent publication US7354746B1, “Method for producing optically active IHOG and monatin” (Ajinomoto Co., Inc., priority 2006, dated 2008).
Like-named read-outs stand apart in the source and are kept apart here.

Conditions: for Sweetness (vs. Sucrose): sweetness intensity relative to sucrose

SMILES | Sweetness rank among the 4 types of monatin isomers (comparison of the 4 monatin isomers) | Sweetness (vs. Sucrose) [times] | Sweetness (vs. Sucrose) (listed as (2R, 4R)-monatin)
N[C@H](CC(O)(Cc1c[nH]c2ccccc12)C(=O)O)C(=O)O (stereo partly drawn) [2R, 4R, (2R, 4R)-monatin] | highest sweetness | 2700 | 2,700 times
N[C@H](C[C@@](O)(Cc1c[nH]c2ccccc12)C(=O)O)C(=O)O [2R, 4S] |  | 1300 | 
N[C@@H](C[C@](O)(Cc1c[nH]c2ccccc12)C(=O)O)C(=O)O [2S, 4R, (2S, 4R)-monatin] |  | 300 | 
NC(CC(O)(Cc1c[nH]c2ccccc12)C(=O)O)C(=O)O [2S, 4S, (2S, 4S)-monatin] |  | 50 | 
